Measurements from ChEMBL document CHEMBL1155000, “Discovery of a novel series of Notch-sparing gamma-secretase inhibitors” (Bioorg Med Chem Lett, 2008).

Columns and labels:
[1] = Inhibition of gamma-secretase expressed in CHO cells expressing wild type human recombinant APP assessed as reduction in amyloid beta40 production
[2] = Selectivity ratio of EC50 for gamma-secretase to EC50 for mouse notch
[3] = (§1) Inhibition of mouse notch expressed in CHO cells assessed as transactivation of soluble alkaline phosphatase reporter system; assay type: cell-based
[4] = tested on: CHO; assay: as §1; assay type: cell-based

Row | EC50 [1] [µM] | Structure (SMILES) | other results
1 | > 100 | C[C@@H](CO)NS(=O)(=O)c1ccc(Cl)cc1 | 
2 | 4.58 | CC(C)[C@@H](CO)NS(=O)(=O)c1ccc(Cl)cc1 | 
3 | > 100 | CC[C@H](C)[C@H](NS(=O)(=O)c1ccc(Cl)cc1)C(=O)O | 
4 | > 100 | CC[C@H](C)[C@@H](CO)NS(=O)(=O)c1ccc(S(C)(=O)=O)cc1 | 
5 | 47.3 | CC[C@H](C)[C@@H](CO)NC(=O)Nc1ccc(Cl)cc1 | 
6 | 68.8 | O=S(=O)(N[C@H](CO)c1ccccc1)c1ccc(Cl)cc1 | 
7 | 0.294 | CCC(CC)[C@@H](CO)NS(=O)(=O)c1ccc(Cl)cc1 | Ratio EC50 [2]: 13.9; EC50 [3]: 4.09 µM
8 | > 100 | CC[C@H](C)[C@H](NS(=O)(=O)c1ccc(Cl)cc1)C(C)(C)O | 
9 | 29.1 | CC(C)(C)[C@@H](CO)NS(=O)(=O)c1ccc(Cl)cc1 | 
10 | 14.3 | CC[C@H](C)[C@@H](CO)NS(=O)(=O)c1ccc(C)cc1 | 
11 | 4.24 | CC[C@H](C)[C@@H](CO)NS(=O)(=O)c1ccc(F)cc1 | 
12 | 37 | CC[C@H](C)[C@@H](CO)NS(=O)(=O)c1ccc(Cl)c(Cl)c1 | 
13 | 23.5 | CC[C@H](C)[C@@H](CO)NS(=O)(=O)c1ccc(OC(F)(F)F)cc1 | 
14 | > 30 | CC[C@H](C)[C@@H](CO)NS(=O)(=O)Nc1ccc(Cl)cc1 | 
15 | 18.3 | CC[C@H](C)[C@@H](CO)NS(=O)(=O)c1cccc(Cl)c1 | 
16 | 23.5 | CC[C@H](C)[C@@H](CO)NS(=O)(=O)c1cc(Cl)cc(Cl)c1 | 
17 | 0.0003 | C[C@H](NC(=O)[C@@H](O)c1cc(F)cc(F)c1)C(=O)N[C@@H]1C(=O)N(C)N=Cc2ccccc21 | Ratio EC50 [4]: 0.5
18 | > 100 | CC[C@H](C)[C@@H](CO)NS(=O)(=O)c1ccc(C#N)cc1 | 
19 | 0.085 | CCCNC(=O)OC[C@@H](C)N(c1cc(Cl)ccc1CO)S(=O)(=O)c1ccc(Cl)cc1 | 
20 | 6.02 | CC[C@H](C)[C@@H](CO)NS(=O)(=O)c1ccc(C(C)=O)cc1 | 

Row | EC50 [1] [µM] | Structure (SMILES) | other results
21 | 7.84 | CC[C@H](C)[C@@H](CO)NS(=O)(=O)c1ccc(Cl)c(F)c1 | 
22 | 0.758 | CC[C@@H](C)[C@@H](CO)NS(=O)(=O)c1ccc(Cl)cc1 | 
23 | > 100 | CC[C@H](C)[C@@H](CO)NC(=O)c1ccc(Cl)cc1 | 
24 | 49.3 | CC[C@H](C)[C@H](NS(=O)(=O)c1ccc(Cl)cc1)C(C)O (some centres undefined) | 
25 | 2.21 | CC[C@H](C)[C@@H](CO)NS(=O)(=O)c1ccc(Br)cc1 | EC50 [3]: 20 µM
26 | 1.12 | O=S(=O)(N[C@H](CO)C1CCCCC1)c1ccc(Cl)cc1 | 
27 | 54.8 | CC[C@H](C)[C@@H](CO)NS(=O)(=O)c1cc(Cl)ccc1Cl | 
28 | 56.6 | CC[C@H](C)[C@@H](CO)NS(=O)(=O)c1ccccc1Cl | 
29 | 20.9 | CC[C@H](C)[C@@H](CO)NS(=O)(=O)c1ccc([N+](=O)[O-])cc1 | 
30 | > 100 | CC[C@@H](CO)NS(=O)(=O)c1ccc(Cl)cc1 | 
31 | 4.27 | CC[C@H](C)[C@@H](CO)NS(=O)(=O)c1cccc(Cl)c1Cl | 
32 | 0.007 | C[C@H](c1ccc(F)cc1CCCC(=O)O)N(c1cc(F)ccc1F)S(=O)(=O)c1ccc(Cl)cc1 | Ratio EC50 [2]: 15
33 | 15.3 | CC(C)C[C@@H](CO)NS(=O)(=O)c1ccc(Cl)cc1 | 
34 | 12.2 | CCOC(=O)N1CCC(c2ccccc2)(S(=O)(=O)c2ccc(Cl)cc2)CC1 | Ratio EC50 [2]: 8.8; EC50 [3]: 0.746 µM
35 | 0.028 | CC(C)[C@H](O)C(=O)N[C@@H](C)C(=O)N[C@@H]1C(=O)N(C)CCc2ccccc21 | EC50 [3]: 0.063 µM
36 | 4.15 | CC[C@H](C)[C@@H](CO)NS(=O)(=O)c1ccccc1 | 
37 | > 100 | CC[C@H](C)[C@@H](CO)NC(=O)Cc1ccc(Cl)cc1 | 
38 | > 100 | CC[C@H](C)[C@@H](CO)NCc1ccc(Cl)cc1 | 
39 | 13.1 | CC[C@H](C)[C@@H](CO)NS(=O)(=O)c1ccc(C(F)(F)F)cc1 | 
40 | 5.45 | CC[C@H](C)[C@@H](CO)NS(=O)(=O)c1ccc(Cl)cc1 | EC50 [3]: 20 µM
